The text below walks through data of PMC4729137, “Functional analysis of androgen receptor mutations that confer anti-androgen resistance identified in circulating cell-free DNA from prostate cancer patients” (Genome Biology, 2016).

Where a chain is given by its changes, count along the chain named. Entries after “also recorded” stand apart in the source; their conditions may differ.

Assay [1] deals with T1, WT-AR (Homo sapiens, UniProt P10275).
T1 sequence (P10275 1-920): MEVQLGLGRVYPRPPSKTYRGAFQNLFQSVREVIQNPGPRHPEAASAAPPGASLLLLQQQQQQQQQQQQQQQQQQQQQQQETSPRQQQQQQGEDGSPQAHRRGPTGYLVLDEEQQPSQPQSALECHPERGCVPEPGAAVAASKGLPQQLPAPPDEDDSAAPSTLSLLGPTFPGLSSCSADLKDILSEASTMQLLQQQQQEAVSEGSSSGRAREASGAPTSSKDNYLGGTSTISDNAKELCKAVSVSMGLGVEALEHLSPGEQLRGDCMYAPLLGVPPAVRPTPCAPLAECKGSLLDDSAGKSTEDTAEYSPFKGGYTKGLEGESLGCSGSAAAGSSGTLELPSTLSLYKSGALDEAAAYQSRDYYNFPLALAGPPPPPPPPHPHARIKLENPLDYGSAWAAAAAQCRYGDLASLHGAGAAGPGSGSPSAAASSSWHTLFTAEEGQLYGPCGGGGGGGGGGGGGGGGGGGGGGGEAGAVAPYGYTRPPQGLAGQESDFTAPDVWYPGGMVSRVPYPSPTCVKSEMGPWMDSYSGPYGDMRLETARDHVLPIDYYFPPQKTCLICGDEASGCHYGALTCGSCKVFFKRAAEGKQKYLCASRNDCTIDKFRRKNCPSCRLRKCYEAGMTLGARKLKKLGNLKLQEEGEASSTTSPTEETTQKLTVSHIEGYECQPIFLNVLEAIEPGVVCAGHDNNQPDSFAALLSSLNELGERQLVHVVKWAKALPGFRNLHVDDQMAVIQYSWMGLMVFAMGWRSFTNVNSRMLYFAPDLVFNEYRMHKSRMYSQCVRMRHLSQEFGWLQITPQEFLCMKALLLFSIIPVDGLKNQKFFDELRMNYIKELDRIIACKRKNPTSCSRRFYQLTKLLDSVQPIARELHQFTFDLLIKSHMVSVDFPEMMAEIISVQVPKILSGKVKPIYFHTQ
The settings on record: concentrations up to 500 nM.

In assay [2] the target is T1, WT-AR. Nature of the assay: cell-based.
Another assay has as its target T2, H875Y-AR (Homo sapiens, UniProt P10275, H875Y).
T2 sequence (P10275 1-920 H875Y): T1 sequence (P10275 1-920) with H875Y
Put plainly: cell-based.

The target in another assay is T3, D880E-AR (Homo sapiens, UniProt P10275, D880E).
T3 sequence (P10275 1-920 D880E): T1 sequence (P10275 1-920) with D880E
Nature of the assay: cell-based.

With `C[C@]12CCC(=O)C=C1CC[C@@H]1[C@@H]2[C@@H](O)C[C@@]2(C)[C@H]1CC[C@]2(O)C(=O)CO` [hydrocortisone], the “Transcriptional activation of wild-type AR (in words)” value on WT-AR [1] is reported as “not activated; also recorded: did not exhibit any significant transcriptional activation”. For the same molecule, the EC50 on WT-AR [2], on H875Y-AR and at D880E-AR was over 500 nM throughout.
